These results are taken from patent publication US20250197425A1, “2,6,9-TRISUBSTITUTED PURINES” (ASTRAZENECA AB, priority 2022, published 2025).

In general, IC50 refers to the concentration that gives 50% inhibition. For orientation: solubility means the concentration that dissolves in the medium under given conditions. Lower therefore signals a poorly soluble substance.

Data set [1] deals with NPM phosphorylation (Thr199, CDK2-cyclin E complex). In words: NPM phosphorylation imaging assay in MCF-7 cells. It counts as cell-based. As to conditions: Homo sapiens, 4N DNA cells. In a few lines:
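MCF-7 cells were fixed, permeabilised and immunostained, then imaged for phospho-NPM (Thr199), a CDK2-cyclin E site. Analysis was gated on 4N-DNA cells by Hoechst staining. Signals were normalised to controls and fitted for IC50.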

The next data set deals with MCF-7 cells. In words: Cellular proliferation EdU assay, MCF-7. Conditions: Homo sapiens, MCF7, 48 h, EdU assay, two days; read-out: MCF-7 IC50. The data set is classed as cell-based. In a few lines:
(§1)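 MCF-7 (800 cells/well) and OVCAR3 (1200 cells/well) in RPMI with 10% FBS exposed to compounds for two days at 37 °C.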

In another data set the target is CDK2:CCNE1 (Homo sapiens (Human), UniProt P24941). In words: NanoBRET assay in MCF-7 cells, CDK2. The data set is classed as cell-based. Conditions: transfected MCF-7 cells, 2 hours, n = 1 or average. The gist of the method: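 In live MCF-7 cells, compound added followed by NanoBRET TE Tracer K-9 (stock 200 μM) for CDK2, 2 h at 37° C, 5% CO2.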
For orientation: Bioluminescence resonance energy transfer reports proximity on the nanometre scale.

In data set [2] the test system is POLR2A Ser2 phosphorylation (CDK9). Kind of data set: POLR2A Ser2 phosphorylation imaging assay in MCF-7 cells. As to conditions: Homo sapiens, MCF7, 2 h, MCF-7 cells, 2 hours; read-out: POLR2A Ser2 phosphorylation IC50. The data set is classed as cell-based. The gist of the method: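 MCF-7 cells were fixed, permeabilised and immunostained for POLR2A phospho-Ser2, then imaged by high-content microscopy. Levels were normalised to controls and IC50 values derived.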

Another data set relates to OVCAR3 cells. In words: Cellular proliferation EdU assay, OVCAR3. The data set is classed as cell-based, human. As to conditions: Homo sapiens, OVCAR-3, 48 h, EdU assay, two days; read-out: OVCAR3 IC50. In a few lines: as §1
In another data set the target is CDK1:CCNB1 (Homo sapiens (Human), UniProt P06493). In words: NanoBRET assay in MCF-7 cells, CDK1. The data set is classed as cell-based. As to conditions: NanoBRET, transfected MCF-7 cells, 2 hours; n = 1 or average; read-out: CDK1 IC50. The gist of the method: (§2)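 Intracellular target engagement was measured by NanoBRET ratio (460 nm/610 nm) in live MCF-7 cells transiently carrying CDK4:CCND1 (Tracer K-7, 100 μM stock) or CDK1:CCNB1 (Tracer K-9, 400 μM stock).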
Chain of CDK1:CCNB1 (P06493 whole entry): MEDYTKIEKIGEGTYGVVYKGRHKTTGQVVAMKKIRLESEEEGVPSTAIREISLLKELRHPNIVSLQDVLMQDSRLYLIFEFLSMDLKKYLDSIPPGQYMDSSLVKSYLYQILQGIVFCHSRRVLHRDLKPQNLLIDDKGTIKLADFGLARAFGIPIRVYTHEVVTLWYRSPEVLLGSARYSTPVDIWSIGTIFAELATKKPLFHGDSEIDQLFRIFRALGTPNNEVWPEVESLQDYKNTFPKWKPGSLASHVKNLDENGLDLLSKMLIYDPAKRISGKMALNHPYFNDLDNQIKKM
Chain of CDK1:CCNB1 (P14635 whole entry partner): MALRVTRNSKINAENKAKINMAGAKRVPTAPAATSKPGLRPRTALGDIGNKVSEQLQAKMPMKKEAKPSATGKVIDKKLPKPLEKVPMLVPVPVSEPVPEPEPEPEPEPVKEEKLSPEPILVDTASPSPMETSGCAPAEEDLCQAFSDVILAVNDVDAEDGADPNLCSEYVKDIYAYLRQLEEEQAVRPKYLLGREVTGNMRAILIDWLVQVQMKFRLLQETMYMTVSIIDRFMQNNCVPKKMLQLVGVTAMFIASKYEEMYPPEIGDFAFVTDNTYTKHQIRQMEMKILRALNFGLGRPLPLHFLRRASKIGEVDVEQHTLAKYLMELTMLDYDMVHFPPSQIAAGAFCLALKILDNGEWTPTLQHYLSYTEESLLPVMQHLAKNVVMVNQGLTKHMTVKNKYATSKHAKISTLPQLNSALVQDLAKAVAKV

For another data set, the target named is CDK4:CCND1 (Homo sapiens (Human), UniProt P11802). Kind of data set: NanoBRET assay in MCF-7 cells, CDK4. It counts as cell-based. Conditions: NanoBRET, transfected MCF-7 cells, 2 hours; n = 1 or average; read-out: CDK4 IC50. In a few lines:
as §2

The nature of data set [3]: Aqueous thermodynamic solubility, shake-flask. It counts as physicochemical. As to conditions: aqueous phosphate buffer, 25 °C, pH 7.4, aqueous buffer, thermodynamic from solid, phosphate buffer 0.1 M, pH 7.4, 24 hours. The gist of the method: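 After 24 h stirring at 25° C. in pH 7.4 phosphate buffer (0.1 M), solid-free supernatant from two centrifugations was quantified by UPLC/MS/MS after dilution in water. Compound was added as dried material after DMSO removal.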

The nature of data set [4]: CLint assessment in human liver microsomes (HLM). It counts as in vitro ADME. Conditions: 1 μM. The gist of the method: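 Microsomes preincubated 8 min with NADPH, then compound added and incubated 30 min at 37° C. Remaining compound measured by LC-MS/MS. t1/2 and CLint calculated, with CLint scaled to incubation volume per mg microsomal protein.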
Background: Liver microsomes are vesicles of endoplasmic reticulum, rich in cytochrome P450 enzymes.

In brackets after ≈: the same amount, converted by molar mass. Some results are limits rather than exact numbers.

Chain of CDK4:CCND1 (P11802 whole entry): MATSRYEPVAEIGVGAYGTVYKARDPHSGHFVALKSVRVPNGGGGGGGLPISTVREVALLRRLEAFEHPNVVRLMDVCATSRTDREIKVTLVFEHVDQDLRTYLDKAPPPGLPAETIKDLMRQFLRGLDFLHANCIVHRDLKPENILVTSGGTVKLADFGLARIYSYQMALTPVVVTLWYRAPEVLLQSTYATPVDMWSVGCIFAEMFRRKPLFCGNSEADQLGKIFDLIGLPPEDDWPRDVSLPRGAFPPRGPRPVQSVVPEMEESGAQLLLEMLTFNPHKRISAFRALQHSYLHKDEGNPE
Chain of CDK4:CCND1 (P24385 whole entry partner): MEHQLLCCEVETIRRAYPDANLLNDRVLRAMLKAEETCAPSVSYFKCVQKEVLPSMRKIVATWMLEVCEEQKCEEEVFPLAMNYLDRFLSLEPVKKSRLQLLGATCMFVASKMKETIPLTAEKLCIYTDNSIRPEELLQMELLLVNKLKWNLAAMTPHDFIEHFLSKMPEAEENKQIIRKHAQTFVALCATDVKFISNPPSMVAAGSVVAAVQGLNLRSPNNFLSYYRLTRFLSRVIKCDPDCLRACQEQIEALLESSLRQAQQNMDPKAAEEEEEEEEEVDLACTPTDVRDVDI

As to `CC(C)[C@H](CO)Nc1nc(N[C@@H]2CN(S(C)(=O)=O)C[C@H]2C)c2ncn(C(C)C)c2n1` [Example 36, (R)-2-((9-isopropyl-6-(((3S,4R)-4-methyl-1-(methylsulfonyl)-pyrrolidin-3-yl)amino)-9H-purin-2-yl)amino)-3-methylbutan-1-ol], the IC50 in data set [1] (MCF7, 2 hours) was 1230 nM; in the data set with MCF-7 cells, 3010 nM; at CDK2:CCNE1 it was 50 nM; in data set [2], over 30000 nM; with OVCAR3 cells, 1250 nM; on CDK1:CCNB1 it was 2020 nM. In addition, the concentration for half-maximal inhibition (IC50) at CDK4:CCND1 is over 29700 nM. Moreover, the solubility at 24 h in data set [3] was found to be 11.1 µM (≈ 4.88 µg/mL). Moreover, in data set [4], the “HLM CLint” value is over 300 µL/min/mg.
For the compound `CC[C@H](Nc1nc(N[C@H]2C[C@@H](C)N(S(C)(=O)=O)C2)c2ncn(C(C)C)c2n1)[C@@H](C)O` [Example 37, (2R,3S)-3-((9-isopropyl-6-(((3S,5R)-5-methyl-1-(methylsulfonyl)-pyrrolidin-3-yl)amino)-9H-purin-2-yl)amino)pentan-2-ol], the IC50 in data set [1] (MCF7, 2 hours) is 879 nM; in the data set on MCF-7 cells it was 2790 nM; against CDK2:CCNE1, 61 nM; in data set [2], over 30000 nM; with OVCAR3 cells it was 1300 nM; on CDK1:CCNB1, 4590 nM. For the same compound, the IC50 at CDK4:CCND1 was over 29700 nM. The compound also had a solubility at 24 h in data set [3] of 414 µM (≈ 182 µg/mL). Besides, the “HLM CLint” value in data set [4] came out at 143 µL/min/mg.
As to `CCn1cnc2c(N[C@H]3CCN(S(=O)(=O)CC(F)(F)F)C3)nc(N[C@@H](CO)C(C)C)nc21` [Example 40, (R)-2-((9-ethyl-6-(((S)-1-(2,2,2-trifluoroethylsulfonyl)pyrrolidin-3-yl)amino)-9H-purin-2-yl)amino)-3-methylbutan-1-ol], the IC50 in [1] (MCF7, 2 h) is 253 nM; in the data set on MCF-7 cells, 2710 nM; at CDK2:CCNE1, 24 nM; in data set [2] it was over 30000 nM; with OVCAR3 cells it was 6720 nM; at CDK1:CCNB1 it was 587 nM. Moreover, the 50% inhibitory concentration (IC50) on CDK4:CCND1 is 4300 nM. In data set [3], this compound returned a solubility at 24 h of 1.79 µM (≈ 0.858 µg/mL). Also, in [4], the “HLM CLint” value was over 300 µL/min/mg.
In the case of `CCn1cnc2c(N[C@H]3CCN(S(=O)(=O)C4CC4)C3)nc(N[C@@H](CO)C(C)C)nc21` [Example 41, (R)-2-((6-(((S)-1-(cyclopropylsulfonyl)pyrrolidin-3-yl)amino)-9-ethyl-9H-purin-2-yl)amino)-3-methylbutan-1-ol], the IC50 is 182 nM in data set [1] (MCF7, 2 h); 746 nM in the data set on MCF-7 cells; 19 nM against CDK2:CCNE1; over 30000 nM in data set [2]; 327 nM with OVCAR3 cells; 663 nM at CDK1:CCNB1. The IC50 on CDK4:CCND1 worked out at 7700 nM. The solubility at 24 h in data set [3] came out at 39.2 µM (≈ 17.2 µg/mL). Further, the “HLM CLint” value in data set [4] was found to be 177 µL/min/mg.
Regarding `CCn1cnc2c(N[C@H]3CCN(S(=O)(=O)CCOC)C3)nc(N[C@@H](CO)C(C)C)nc21` [Example 42, (R)-2-((9-ethyl-6-(((S)-1-((2-methoxyethyl)sulfonyl)pyrrolidin-3-yl)-amino)-9H-purin-2-yl)amino)-3-methylbutan-1-ol], the 50% inhibitory concentration (IC50) in [1] (MCF7, 2 h) is 310 nM; in the data set with MCF-7 cells, 925 nM; against CDK2:CCNE1 it was 27 nM; in data set [2], over 30000 nM; with OVCAR3 cells, 428 nM; at CDK1:CCNB1, 875 nM. For the same compound, the IC50 on CDK4:CCND1 was 4500 nM. Also, the solubility at 24 h in [3] was 167 µM (≈ 76.1 µg/mL). In data set [4], the “HLM CLint” value amounted to 196 µL/min/mg.
As for `CCn1cnc2c(N[C@H]3CCN(S(=O)(=O)CF)C3)nc(N[C@@H](CO)C(C)C)nc21` [Example 43, (R)-2-((9-ethyl-6-(((S)-1-(fluoromethylsulfonyl)pyrrolidin-3-yl)-amino)-9H-purin-2-yl)amino)-3-methylbutan-1-ol], the IC50 in data set [1] (MCF7, 2 h) is 150 nM; with MCF-7 cells it was 328 nM; against CDK2:CCNE1, 11 nM; in [2] it was over 30000 nM; with OVCAR3 cells it was 291 nM; on CDK1:CCNB1 it was 557 nM. Moreover, the IC50 on CDK4:CCND1 was 5200 nM. In [3], this compound registered a solubility at 24 h of 97.2 µM (≈ 41.7 µg/mL). Also, in data set [4], the “HLM CLint” value was determined as 148 µL/min/mg.
Turning to `CC[C@H](Nc1nc(N[C@H]2CCN(S(=O)(=O)NC)C2)c2ncn(CC)c2n1)C(C)(C)O` [Example 46, (S)-3-((9-ethyl-2-(((S)-2-hydroxy-2-methylpentan-3-yl)amino)-9H-purin-6-yl)amino)-N-methylpyrrolidine-1-sulfonamide], the IC50 is 1170 nM in data set [1] (MCF7, 2 hours); 3170 nM with MCF-7 cells; 192 nM on CDK2:CCNE1; over 30000 nM in [2]; 1370 nM with OVCAR3 cells; 8370 nM at CDK1:CCNB1. Besides, at CDK4:CCND1, the IC50 was 23700 nM. Besides, the solubility at 24 h in [3] was over 1000 µM. Further, the “HLM CLint” value in [4] came to 76.6 µL/min/mg.
In the case of `CC[C@@H](CO)Nc1nc(N[C@H]2CCN(S(=O)(=O)NC)C2)c2ncn(CC)c2n1` [Example 48, (S)-3-((9-ethyl-2-(((S)-1-hydroxybutan-2-yl)amino)-9H-purin-6-yl)-amino)-N-methylpyrrolidine-1-sulfonamide], the IC50 was 1300 nM in data set [1] (MCF7, 2 h); 3330 nM with MCF-7 cells; 123 nM on CDK2:CCNE1; over 30000 nM in data set [2]; 2350 nM with OVCAR3 cells; 5550 nM on CDK1:CCNB1. Moreover, on CDK4:CCND1, the IC50 was over 23800 nM. In data set [3], this compound came in with a solubility at 24 h of over 1000 µM. Besides, the “HLM CLint” value in [4] amounted to 13.3 µL/min/mg.
Consider `CCn1cnc2c(N[C@H]3CCN(S(=O)(=O)NC)C3)nc(N[C@@H]3c4ccccc4C[C@@H]3O)nc21` [Example 51, (S)-3-((9-ethyl-2-(((1R,2S)-2-hydroxy-2,3-dihydro-1H-inden-1-yl)amino)-9H-purin-6-yl)amino)-N-methylpyrrolidine-1-sulfonamide], for which the IC50 in data set [1] (MCF7, 2 h) was determined as 157 nM; with MCF-7 cells it was 536 nM; against CDK2:CCNE1 it was 32 nM; in data set [2] it was 7400 nM; in the data set on OVCAR3 cells it was 324 nM; on CDK1:CCNB1, 532 nM. Besides, the IC50 at CDK4:CCND1 turned out to be 1900 nM. In data set [3], this compound registered a solubility at 24 h of 35 µM (≈ 16.5 µg/mL). Also, the “HLM CLint” value in data set [4] was 212 µL/min/mg.
For `CCNS(=O)(=O)N1CC[C@H](Nc2cc(N[C@@H](CC)[C@@H](C)O)nc3c2ncn3CC)C1` [Example 60, (S)—N-ethyl-3-((3-ethyl-5-(((2R,3S)-2-hydroxypentan-3-yl)amino)-3H-imidazo[4,5-b]pyridin-7-yl)amino)pyrrolidine-1-sulfonamide], the IC50 in data set [1] (MCF7, 2 h) stood at 64 nM; with MCF-7 cells it was 637 nM; against CDK2:CCNE1, 14 nM; in data set [2] it was 6100 nM; with OVCAR3 cells it was 89 nM; on CDK1:CCNB1, 426 nM. The IC50 at CDK4:CCND1 turned out to be 2500 nM. The solubility at 24 h in [3] stood at 51.3 µM (≈ 22.6 µg/mL). Besides, the “HLM CLint” value in [4] was determined as 65.6 µL/min/mg.
